# Measured values reported in patent US20250381220A1, “MAGNESIUM-L-THREONATE AND NEUROTRANSMITTER COMPOSITIONS AND RELATED METHODS” (Neuro Supplements, LLC, priority 2020, published 2025).
# System: Male Wistar Rats
# Assay: Morris Water Maze (MWM) probe test
# Type: in vivo, rat
# Details: 21 days through drinking water, probe test day 21, FIG. 4, MgT 435, PS 60 mg/kg bw/day
substance,measurement,value
phosphatidylserine [PS],time spent in target quadrant,significant increase
